A short description of series [1]: LC-MS/MS quantification in blood/serum of human intoxication cases. It is filed as in vivo.
The target of series [2] is T1, norepinephrine transporter (NET) (Rattus norvegicus, UniProt Q63380). Briefly: Inhibition of [^3H]norepinephrine uptake at NET in rat brain synaptosomes. The series is classed as biochemical. The note with it: approximate value.
Series [3] has as its target 5-HT transporter (SERT) (Rattus norvegicus, UniProt P31652). Briefly: Release of [^3H]5-HT via SERT from rat brain synaptosomes. The series is classed as biochemical. The note with it: for Emax: read-out: Release of [^3H]5-HT via SERT %Emax; for Release of [^3H]5-HT via SERT EC50: rat brain synaptosomes, mean ± SD, n=3.
The target of series [4] is T1, norepinephrine transporter (NET). Briefly: Release of [^3H]MPP+ via NET from rat brain synaptosomes. It is filed as biochemical. The note with it: for Release of [^3H]MPP+ via NET EC50: rat brain synaptosomes, mean ± SD, n=3.
In series [5] the target is T2, dopamine transporter (DAT) (Rattus norvegicus, UniProt P23977). Briefly: Inhibition of [^3H]dopamine uptake at DAT in rat brain synaptosomes. The conditions noted are these: for DAT/SERT ratio (uptake inhibition): [DAT IC50]^−1/[SERT IC50]^−1, higher value indicates greater DAT selectivity. It is filed as biochemical.
The target of series [6] is T2, dopamine transporter (DAT). The series is described as follows: Release of [^3H]MPP+ via DAT from rat brain synaptosomes. The series is classed as biochemical. The note with it: for Release of [^3H]MPP+ via DAT EC50: rat brain synaptosomes, mean ± SD, n=3.
The format of series [7] is in vivo, human. The note with it: for Potassium: reference 3.3 - 5.1; for aspartame aminotransferase: reference 10 - 40; for alanine aminotransferase: reference 12 - 78; for BUN: reference 15 - 39; for Sodium: reference 136 - 145; for pH: reference 7.35 - 7.45; for HCO3: reference 22 - 26; for pCO2: reference 35 - 45; for Glucose: reference 70 - 100; for pO2: reference 80 - 100; for serum creatinine: reference Male 0.8 - 1.3; for Hb: reference Male 13.2 - 18.0; for Hematocrit: reference Male 39.0 - 51.0; for creatine kinase: reference Male 39 - 308; for base excess: reference −2 - +2.

Series [8] in a line: Stability in whole blood on storage. It is filed as physicochemical, human. The conditions noted are these: for long-term stability, variation of initial concentration: 90 days; for Stability (% difference): whole blood, n=3.
Where [9] appears, read: Case 4, co-exposure alcohol, MDMA and N-ethylnorpentylone.
Setting [10] is: Inhibition of [^3H]dopamine Uptake at DAT IC50, rat brain synaptosomes (caudate), mean ± SD, n=3.

Structures are written as SMILES. “And” between values parts separate entries of the source, which are not always exact repeats. Equal values may be shown once. Read-outs that look alike come from different tables or passages of the source.

Broadly, the IC50 is the concentration at which inhibition is half-maximal. As usually defined, the EC50 is the concentration needed to bring the measured effect to its halfway point. The low end stands for greater potency, the high end for weaker potency. One may read the Emax as the maximal effect, on the per cent scale that the assay sets.

5-HT transporter (SERT), sequence (P31652 whole entry): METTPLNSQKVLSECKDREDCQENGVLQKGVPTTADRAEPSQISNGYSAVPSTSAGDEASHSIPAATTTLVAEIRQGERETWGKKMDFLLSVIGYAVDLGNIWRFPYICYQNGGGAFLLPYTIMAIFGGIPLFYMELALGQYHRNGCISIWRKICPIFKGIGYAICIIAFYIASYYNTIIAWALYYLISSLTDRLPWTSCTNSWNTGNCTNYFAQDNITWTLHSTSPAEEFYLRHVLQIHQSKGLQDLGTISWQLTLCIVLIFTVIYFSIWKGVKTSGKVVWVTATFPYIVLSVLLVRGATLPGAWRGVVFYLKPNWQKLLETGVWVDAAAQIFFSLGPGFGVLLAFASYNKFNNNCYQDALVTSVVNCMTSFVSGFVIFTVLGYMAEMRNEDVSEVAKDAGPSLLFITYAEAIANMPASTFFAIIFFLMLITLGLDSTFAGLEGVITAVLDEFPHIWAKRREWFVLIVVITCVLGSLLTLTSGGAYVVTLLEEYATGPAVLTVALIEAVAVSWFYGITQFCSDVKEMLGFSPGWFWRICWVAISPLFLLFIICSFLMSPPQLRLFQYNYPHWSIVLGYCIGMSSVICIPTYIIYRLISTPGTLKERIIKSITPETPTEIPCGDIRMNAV
T2 sequence (P23977 whole entry): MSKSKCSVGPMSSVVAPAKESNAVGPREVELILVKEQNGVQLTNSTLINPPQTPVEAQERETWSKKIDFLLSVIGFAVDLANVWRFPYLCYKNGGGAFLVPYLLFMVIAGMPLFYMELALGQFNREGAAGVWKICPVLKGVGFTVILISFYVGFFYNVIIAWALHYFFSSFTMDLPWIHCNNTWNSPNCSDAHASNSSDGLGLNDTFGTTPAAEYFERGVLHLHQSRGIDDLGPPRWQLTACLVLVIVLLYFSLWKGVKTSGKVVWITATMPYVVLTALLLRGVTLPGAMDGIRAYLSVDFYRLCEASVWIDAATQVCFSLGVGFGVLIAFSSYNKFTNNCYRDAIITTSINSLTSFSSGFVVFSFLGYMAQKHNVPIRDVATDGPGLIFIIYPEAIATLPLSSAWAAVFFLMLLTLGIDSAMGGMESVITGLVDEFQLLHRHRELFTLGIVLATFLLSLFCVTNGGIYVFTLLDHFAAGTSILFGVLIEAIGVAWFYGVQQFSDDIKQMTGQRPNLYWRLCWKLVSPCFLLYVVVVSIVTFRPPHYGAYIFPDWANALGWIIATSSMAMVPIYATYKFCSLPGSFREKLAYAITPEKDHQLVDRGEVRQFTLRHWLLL
T1 sequence (Q63380 1-617): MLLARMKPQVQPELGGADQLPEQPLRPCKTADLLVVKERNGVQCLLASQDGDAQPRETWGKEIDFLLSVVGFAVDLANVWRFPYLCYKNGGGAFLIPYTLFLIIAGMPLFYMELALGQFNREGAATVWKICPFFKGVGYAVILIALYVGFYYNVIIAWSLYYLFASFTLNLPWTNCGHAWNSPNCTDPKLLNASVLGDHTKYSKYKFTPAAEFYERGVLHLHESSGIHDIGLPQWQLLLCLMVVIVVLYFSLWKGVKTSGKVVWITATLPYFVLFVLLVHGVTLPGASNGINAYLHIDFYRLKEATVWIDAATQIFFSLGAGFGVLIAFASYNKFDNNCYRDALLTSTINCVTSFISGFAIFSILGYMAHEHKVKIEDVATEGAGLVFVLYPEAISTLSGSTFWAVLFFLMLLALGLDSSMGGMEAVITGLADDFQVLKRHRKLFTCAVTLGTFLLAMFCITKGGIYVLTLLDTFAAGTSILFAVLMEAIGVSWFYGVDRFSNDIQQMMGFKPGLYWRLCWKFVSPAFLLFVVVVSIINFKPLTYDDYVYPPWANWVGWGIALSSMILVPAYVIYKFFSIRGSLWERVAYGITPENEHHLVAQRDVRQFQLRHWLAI

`CNC(C)Cc1ccc2c(c1)OCO2` (stereo not drawn) [MDMA, 3,4-methylenedioxymethamphetamine] yielded a serum concentration in series [1] (setting [9]) of 54 ng/mL.

With `CNC(C)C(=O)c1ccc2c(c1)OCO2` (stereo not drawn) [Methylone, 3,4-methylenedioxy-N-methylcathinone], the 50% inhibitory concentration (IC50) in series [2] was approximately 1000 nM; in series [5] (setting [10]) it was 1390 ± 81 nM; in series [5] (uptake inhibition at DAT IC50, rat brain synaptosomes, approximate value), approximately 1000 nM. Moreover, the results for the concentration for a half-maximal effect (EC50) in series [3], in series [4] and in series [6] were 342 ± 20 nM, 81 ± 8 nM and 178 ± 17 nM, respectively. Also, the Emax in series [3] was 99%; in series [4] (read-out: Release of [^3H]MPP+ via NET %Emax), 94%; in series [6] (read-out: Release of [^3H]MPP+ via DAT %Emax) it was 96%. Besides, the “DAT/SERT ratio (uptake inhibition)” value in series [5] was 0.83 and 0.8. In series [6] ([DAT EC50]^−1/[SERT EC50]^−1, higher value indicates greater DAT selectivity), the “DAT/SERT ratio (release)” value was found to be 1.9.

For `CCCC(NCC)C(=O)c1ccc2c(c1)OCO2` (stereo not drawn) [N-ethylnorpentylone, 1-(1,3-benzodioxol-5-yl)-2-(ethylamino)pentan-1-one], the “symptoms of intoxicated subjects” value in series [7] (6 human cases) was “palpitations, tachycardia, agitation, aggression, hallucinations, coma and, in one case, death”. Further, the “heart rate (tachycardia)” value in series [7] (Case 2, at ED) is recorded as 176 bpm. Besides, the Potassium in series [7] (Case 3) came to 3.6 mEq/L; in series [7] (Case 4) it was 3.4 mEq/L; in series [7] (Case 5), 3.7 mEq/L; in series [7] (Case 6) it was 3.8 mEq/L. In addition, the aspartame aminotransferase stood at 93 U/L in series [7] (Case 3), 40 U/L in series [7] (Case 4) and 24 U/L in series [7] (Case 6). In addition, the alanine aminotransferase in series [7] (Case 3) was 35 U/L; in series [7] (Case 4) it was 25 U/L; in series [7] (Case 6), 27 U/L. For the same compound, the BUN worked out at 14 mg/dL in series [7] (Case 3), 14 mg/dL in series [7] (Case 4), 28 mg/dL in series [7] (Case 5) and 31 mg/dL in series [7] (Case 6). Also, the Sodium in series [7] (Case 3) is listed as 140 mEq/L; in series [7] (Case 4), 137 mEq/L; in series [7] (Case 5) it was 137 mEq/L; in series [7] (Case 6), 137 mEq/L. Moreover, the phosphatase alkaline in series [7] (Case 3, reference Adult 50 - 136) was found to be 53 U/L. Also, the blood pressure in series [7] (Case 4, described as normal) was 123/89. For the same compound, the “creatine kinase MB isoenzyme” value in series [7] (Case 4, reference 7 - 25) was determined as 21 U/L. Further, the pH in series [7] (Case 4) came to 7.46; in series [7] (Case 5), 7.41. In addition, the HCO3 is recorded as 20.5 mmol/L in series [7] (Case 4) and 19 mmol/L in series [7] (Case 5). Further, the pCO2 in series [7] (Case 4) was found to be 29.4 mmHg; in series [7] (Case 5), 31 mmHg. Moreover, the Glucose is reported as 104 mg/dL in series [7] (Case 4) and 101 mg/dL in series [7] (Case 6). Also, the results for the pO2 in series [7] (Case 4) and in series [7] (Case 5) were 72.5 mmHg and 86 mmHg, respectively. In addition, the serum creatinine in series [7] (Case 4) worked out at 0.9 mg/dL; in series [7] (Case 5) it was 0.7 mg/dL; in series [7] (Case 6), 0.7 mg/dL. Further, the Hb in series [7] (Case 4) amounted to 15.5 g/dL; in series [7] (Case 5), 13.0 g/dL; in series [7] (Case 6), 13.0 g/dL. Also, the values for the Hematocrit in series [7] (Case 4), in series [7] (Case 5) and in series [7] (Case 6) were 43.0%, 43.0% and 39.9%, respectively. In addition, the creatine kinase was 605 U/L in series [7] (Case 4), 1,260 U/L in series [7] (Case 5) and 713 U/L in series [7] (Case 6). The base excess is -1.6 mmol/L in series [7] (Case 4) and -3.8 mmol/L in series [7] (Case 5). The “Glasgow score (neurological depression)” value in series [7] (Case 5) amounted to 5. In series [7] (Case 5, reference 0.5 - 1.6), the Lactate came out at 11.0 mmol/L. The compound further gave a Magnesium in series [7] (Case 5, reference 1.6 - 2.4) of 1.6 mg/dL. The “long-term stability, variation of initial concentration” value in series [8] (fortified whole blood, both QC concentrations, 4 °C) is recorded as −3.5%; in series [8] (fortified whole blood, both QC concentrations, −20 °C), “+6.5%”; in series [8] (post mortem blood sample, 4 °C), −19.7%; in series [8] (post mortem blood sample, −20 °C), −5.5%. The “Stability (% difference)” value is −3.0% in series [8] (High QC (400 ng/mL), 3 freeze-thaw cycles); 7.1% in series [8] (High QC (400 ng/mL), 4 °C, 24h); 5.9% in series [8] (High QC (400 ng/mL), 4 °C, 72h); −3.3% in series [8] (High QC (400 ng/mL), −20 °C, 24h); −2.9% in series [8] (High QC (400 ng/mL), −20 °C, 72h); −11.8% in series [8] (Low QC (15 ng/mL), 3 freeze-thaw cycles). Besides, the “Stability (% difference)” value in series [8] (Low QC (15 ng/mL), 4 °C, 24h) is recorded as −2.4%; in series [8] (Low QC (15 ng/mL), 4 °C, 72h), −4.9%; in series [8] (Low QC (15 ng/mL), −20 °C, 24h), −1.8%; in series [8] (Low QC (15 ng/mL), −20 °C, 72h), −12.6%. For the same compound, the “post mortem whole blood concentration” value in series [1] (Case 1, fatal, only psychoactive analyte detected) is listed as 170 ng/mL. For the same compound, the serum concentration was determined as 7 ng/mL in series [1] (Case 2, recovered by 12 h); 19 ng/mL in series [1] (setting [9]); 149 ng/mL in series [1] (Case 5, coma, cerebrovascular hemorrhage); 61 ng/mL in series [1] (Case 6, psychosis). The “Release of [^3H]5-HT via SERT EC50” value in series [3] was “unable to evoke release”; in series [3] (listed as N-EthylNorpentylone), “inactive”; in series [3] (listed as N-Ethylnorpentylone) it was “no transporter releasing activity”. Also, the “Release of [^3H]MPP+ via NET EC50” value in series [4] is “unable to evoke release”; in series [4] (listed as N-EthylNorpentylone), “inactive”; in series [4] (listed as N-Ethylnorpentylone), “no transporter releasing activity”. For the same compound, it took 37 ± 2 nM to reach half-maximal inhibition in series [5] (setting [10]) (IC50). For the same compound, the “DAT/SERT ratio (uptake inhibition)” value in series [5] was more than 10. The “Release of [^3H]MPP+ via DAT EC50” value in series [6] was “unable to evoke release”; in series [6] (listed as N-EthylNorpentylone), “inactive”; in series [6] (listed as N-Ethylnorpentylone), “no transporter releasing activity”.

`CCCC(NC)C(=O)c1ccc2c(c1)OCO2` (stereo not drawn) [Pentylone, 1-(1,3-benzodioxol-5-yl)-2-(methylamino)pentan-1-one]: in series [3], the EC50 came to 476 ± 98 nM and the Emax was 54%. In addition, the “Release of [^3H]MPP+ via NET EC50” value in series [4] is given as “Inactive”. The compound also registered a half-inhibitory concentration (IC50) in series [5] (setting [10]) of 154 ± 11 nM. Moreover, the “DAT/SERT ratio (uptake inhibition)” value in series [5] turned out to be 7.8. In addition, in series [6], the “Release of [^3H]MPP+ via DAT EC50” value was “inactive”.

In the case of `CCO` [alcohol], the serum concentration in series [1] (Case 4) was 800000 ng/mL.

For the origin of these results see paper PMC7316160 (Drug testing and analysis, 2018).
